The record followed here is patent US20230227427A1, “IL-17A MODULATORS” (SANOFI, priority 2010, published 2023).

The target of this assay is T1, human recombinant IL-17A (Homo sapiens, UniProt Q16552).
T1 construct: purchased R&D Systems 7955-IL/CF
T1 sequence (Q16552 24-155): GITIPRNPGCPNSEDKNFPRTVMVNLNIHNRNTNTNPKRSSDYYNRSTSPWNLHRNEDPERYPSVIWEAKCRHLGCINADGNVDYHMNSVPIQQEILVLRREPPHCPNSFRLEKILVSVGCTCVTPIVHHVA
In words: IL-17A AlphaLISA assay (block binding of IL-17A to its receptor IL-17RA). The settings on record: compounds pre-incubated with the IL-17A for 30 min (indicated by * in Table A); for IC50: read-out: AlphaLISA pIC50 (converted). The method in brief: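 Compounds pre-incubated 24 h at RT (30 min where flagged) with human IL-17A (7.5 nM stock) before IL-17RA/Fc (5 nM stock), 90 min. Read by AlphaLISA via anti-Fc acceptor and biotin anti-IL-17A/streptavidin donor beads, 680/615 nm. 4-parameter fit; DMSO and 6 μM reference inhibitor as controls; pIC50.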
On the technique in general: Bead proximity is the source of the signal in Alpha formats.

As for `Cc1cnn(C)c1-c1ccc(NC(=O)C(NC(=O)c2ccnn2C)[C@H]2CC[C@H](C(F)(F)F)CC2)nc1` (stereo partly shown) [Example 185, N-(2-((5-(1,4-dimethyl-1H-pyrazol-5-yl)pyridin-2-yl)amino)-2-oxo-1-((1r,4r)-4-(trifluoromethyl)cyclohexyl)ethyl)-1-methyl-1H-pyrazole-5-carboxamide], the IC50 was 631 nM.

In the case of `CCn1nccc1C(=O)NC(C(=O)Nc1ccc(-c2c(C)cnn2C)cn1)[C@H]1CC[C@H](C(F)(F)F)CC1` (stereo partly shown) [Example 186, N-(2-((5-(1,4-dimethyl-1H-pyrazol-5-yl)pyridin-2-yl)amino)-2-oxo-1-((1r,4r)-4-(trifluoromethyl)cyclohexyl)ethyl)-1-ethyl-1H-pyrazole-5-carboxamide], the IC50 is 398 nM.

Turning to `CCc1nocc1C(=O)NC(C(=O)Nc1ccc(-c2c(C)cnn2C)cn1)[C@H]1CC[C@H](C(F)(F)F)CC1` (stereo partly shown) [Example 187, N-(2-((5-(1,4-dimethyl-1H-pyrazol-5-yl)pyridin-2-yl)amino)-2-oxo-1-((1r,4r)-4-(trifluoromethyl)cyclohexyl)ethyl)-3-ethylisoxazole-4-carboxamide], the IC50 is 398 nM.

Take `CCc1nocc1C(=O)N[C@H](C(=O)Nc1ccc(-c2c(C)nnn2C)cn1)[C@H]1CC[C@H](C)CC1` [Example 188, N—((S)-2-((5-(1,4-dimethyl-1H-1,2,3-triazol-5-yl)pyridin-2-yl)amino)-1-((1r,4S)-4-methylcyclohexyl)-2-oxoethyl)-3-ethylisoxazole-4-carboxamide]: the IC50 is 100 nM.

In the case of `CCn1nccc1C(=O)N[C@H](C(=O)Nc1cnc(-c2c(C)cnn2C)c(F)c1)[C@H]1CC[C@H](C)CC1` [Example 189, N—((S)-2-((6-(1,4-dimethyl-1H-pyrazol-5-yl)-5-fluoropyridin-3-yl)amino)-1-((1r,4S)-4-methylcyclohexyl)-2-oxoethyl)-1-ethyl-1H-pyrazole-5-carboxamide], the “AlphaLISA pIC50” value was 6.8*.

On to `Cc1nnn(CC(=O)N(C)C)c1-c1ccc(NC(=O)[C@@H](NC(=O)c2ccnn2C)C2CCCCCC2)nc1` [Example 190, (S)—N-(1-cycloheptyl-2-((5-(1-(2-(dimethylamino)-2-oxoethyl)-4-methyl-1H-1,2,3-triazol-5-yl)pyridin-2-yl)amino)-2-oxoethyl)-1-methyl-1H-pyrazole-5-carboxamide], for which the IC50 is 794 nM.

`Cc1cnn(C)c1-c1ccc(NC(=O)[C@@H](NC(=O)c2conc2C(C)C)[C@H]2CC[C@H](C)CC2)nc1` [Example 191, N—((S)-2-((5-(1,4-dimethyl-1H-pyrazol-5-yl)pyridin-2-yl)amino)-1-((1r,4S)-4-methylcyclohexyl)-2-oxoethyl)-3-isopropylisoxazole-4-carboxamide]: the IC50 is 39.8 nM.

For `Cc1cnn(C)c1-c1ccc(NC(=O)[C@@H](NC(=O)c2conc2C(C)(C)C)[C@H]2CC[C@H](C)CC2)nc1` [Example 192, 3-(tert-butyl)-N—((S)-2-((5-(1,4-dimethyl-1H-pyrazol-5-yl)pyridin-2-yl)amino)-1-((1r,4S)-4-methylcyclohexyl)-2-oxoethyl)isoxazole-4-carboxamide], the IC50 is 200 nM.

In the case of `Cn1nccc1C(=O)N[C@H](C(=O)Nc1ccc(-c2c(C#N)cnn2C)cn1)[C@H]1CC[C@H](C)CC1` [Example 193, N—((S)-2-((5-(4-cyano-1-methyl-1H-pyrazol-5-yl)pyridin-2-yl)amino)-1-((1r,4S)-4-methylcyclohexyl)-2-oxoethyl)-1-methyl-1H-pyrazole-5-carboxamide], the IC50 was 251 nM.

As to `Cc1cnn(C)c1-c1ccc(NC(=O)[C@@H](NC(=O)c2conc2C(F)(F)F)[C@H]2CC[C@H](C)CC2)nc1` [Example 194, N—((S)-2-((5-(1,4-dimethyl-1H-pyrazol-5-yl)pyridin-2-yl)amino)-1-((1r,4S)-4-methylcyclohexyl)-2-oxoethyl)-3-(trifluoromethyl)isoxazole-4-carboxamide], the IC50 is 158 nM.
